Test results reported in patent US20070110726A1, “Rust disease control by Aphanocladium album and/or Beauveria brongniartii” (priority 2005, published 2007).
Starred links: 1 amine or outer side, 2 acyl side, 3 side chain; linkers in the order of their positions; H or OH if unused. Positions of bridges follow the written chain, without caps; N, C: chain ends. Non-standard residues stand in square brackets, D forms with d. Residues, ends and D or L forms follow the SMILES beside them. Chains are numbered I, II in the order given. Actinocin(9to1) = Cc1c2oc3c(C)ccc(C(=O)[*:1])c3nc-2c(C(=O)[*:2])c(N)c1=O; NMeV = CN[C@H](C(=O)O)C(C)C; Sar = CNCC(=O)O

How the values were obtained:
K-562 cells = experiment: MTS cytotoxicity assay; type: cell-based; settings: 3 days exposure
Text: di-Methylthiozol Tetrazolium (MTT assay): Proliferation assays are used in cell biology for the study of growth factors, cytokines and cytotoxic agents. There are several ways to measure the number of cells in a proliferation assay. MTT assay is a rapid and convenient method of determining viable cells in proliferation, cell attachment, chemotaxis and apoptosis assays.
di-Methylthiozol Tetrazolium Salt (MTS assay): MTS assay is a rapid and convenient method of determining viable cells in proliferation or cytotoxic assays. The use of this analog of MTT, provides a stable reaction over time. MTS assay is based on the cellular conversion of a tetrazolium salt into a formozan product that is soluble in tissue culture media and can easily be detected using a 96-well plate reader. This conversion is presumably accomplished by NADPH or NADH produced by dehydrogenases enzymes present in metabolically active cells. MTS is preferred over MTT because the MTS formazan product is soluble in tissue culture medium. In addition the MTS assay require fewer steps than MTT assay. Consequently, we have used MTS for our testing. MTS assay-Method: K-562 (typical cancer cell line used for cytotoxicity assays) cells were seeded in 96-well plates at a concentration of 2.5×10^4 cells/ml. Oosporein and Actinomycin D (a known cytotoxic compound) were prepared in 10% DMSO and added to cells the next day (final DMSO concentration was 0.5%). Oosporein was assessed at a final concentration on the cells of 100, 50, 25, 12.5, 6.25 and 3.125 μg/ml (2-fold dilutions) in quadruplicate. A known toxic agent, Actinomycin D, was added at 100, 20, 4, 0.8 and 0.16 ng/ml (5-fold dilutions). After 3 days exposure to test compound or controls, MTS reagent was prepared and added to the cells. After 3 hours, the accumulation of formazan product was determined by measuring the absorbance at 490 nm. The background absorbance of the cells detected at 630 nm was then subtracted from the initial 490 nm reading. Percent toxicity was determined using the following formula: [formula] [formula] […]

[1] = system: strain NC of Puccinia coronata; experiment: Greenhouse experiment, pure compound Oosporein sprayed on inoculated oat seedlings (telia induction); type: in vivo, Puccinia coronata on oat (cv. Brooks) seedlings; settings: table title strain NC (method text: strain MN); for Percentage of plants with telia: oat cv. Brooks seedlings, pure compound at 100 μg/ml applied four days after inoculation, mean of five replicates; for Telia intensity Rating: scale 0 = healthy to 3.0 = >15% of leaf area with telia, pure compound 100 μg/ml
Description: iv) Both crude extracts and fractions were tested at 10 mg/ml and the pure compound at 100 μg/ml
1.c. Greenhouse Experiments with the Pure Compound, Oosporein Isolated from of A. album (Aa 100 Isolate):
The pure compound (Oosporein) isolated from A. album (Aa 100) dissolved in 500 μl of DMSO and 9.5 ml of sterile distilled water (SDW) with 20 μl of Tween 80. The controls consisted of 500 μl of DMSO in 9.5 ml of SDW with 20 μl of Tween 80. and 10 ml of SDW with 20 μl of Tween 80. Ten ml of each treatment were atomized on 2-3 week-old, oat seedlings previously inoculated with strain MN of Puccinia coronata. Treatments were applied four days after inoculation when flecking symptoms of infection were present, but before uredia were observed (FIG. 1). There were five replicates of each treatment arranged in a randomized complete block design.

rusts = experiment: Conversion of infective urediniospores to non-infective teliospores in rusts

| Structure (SMILES) | Percent toxicity on K-562 cells (K-562 cells; 100 ng/ml) [%] | Percentage of plants with telia [1] [%] | Percentage of plants with telia ([1]; listed as Ooosporein) | Telia intensity Rating [1] | Telia intensity Rating ([1]; listed as Ooosporein) | toxicity on K-562 cells (K-562 cells; 25 μg/ml or less) | toxicity on K-562 cells (K-562 cells; 100 and 50 μg/ml) | time to conversion of infective urediniospores to non-infective teliospores (rusts; after application) | conversion of infective urediniospores to non-infective teliospores (rusts; oat, bareley, wheat, pine and soybean rust) |
| --- | --- | --- | --- | --- | --- | --- | --- | --- | --- |
| Cc1c2oc3c(C)ccc(C(=O)N[C@@H]4C(=O)N[C@H](C(C)C)C(=O)N5CCC[C@H]5C(=O)N(C)CC(=O)N(C)[C@@H](C(C)C)C(=O)O[C@@H]4C)c3nc-2c(C(=O)N[C@@H]2C(=O)N[C@H](C(C)C)C(=O)N3CCC[C@H]3C(=O)N(C)CC(=O)N(C)[C@@H](C(C)C)C(=O)O[C@@H]2C)c(N)c1=O [Actinomycin D, reference compound] (I: T[dV]P[Sar][NMeV] / II: T[dV]P[Sar][NMeV]; ester I:1-I:C, II:1-II:C; linker I:N-II:N via Actinocin(9to1)) | ~100 |  |  |  |  |  |  |  |  |
| CC1=C(O)C(=O)C(C2=C(O)C(=O)C(C)=C(O)C2=O)=C(O)C1=O [Oosporein] |  | 83 | higher percentage of plants with telia | 8.2 | greater intensity of telia | no toxicity whatsoever | very mild toxicity | with in three days of application | convert infective urediniospores to non-infective teliospores |
